From patent US8252326B2, “Self-microemulsifying dosage forms of low solubility active ingredients such as co-enzyme Q10” (Catalent Australia Pty Ltd., priority 2005, dated 2012)

Legend:
[1] = cited from earlier work
[2] = Solubility of coenzyme Q10 in oils, surfactants and co-surfactants; type: physicochemical
Protocol: To determine suitable excipient systems for actives, solubility studies were carried out on a variety of constituents of the inventive SMEDDS formulations. The solubility of Q10 in various oils, surfactants and co-surfactants were determined by placing an excess of the Q10 (approximately 2.5 g) in 22.5 g of the vehicle in screw capped glass bottles and heating the mixture to 55° C. in a water bath to facilitate the solubilization. Mixtures were equilibrated at room temperature for 24 hours and then filtered through 0.45 μm membrane filter to separate the undissolved drug. One gram of the filtered liquid mixtures were then weighed and diluted with cyclohexane and quantified by UV/Visible Spectrometry. Lemon oil and isopropyl myristate provided higher solubility than other oils. Although not limited to a theory of operation, it is believed that the oils form a distinct core in the interior of the surfactant aggregate when being dispersed in water, resulting in enhanced solubilizing capacity of the oils with improved drug loading capabilities of the emulsion.

For `COC1=C(OC)C(=O)C(C/C=C(\C)CC/C=C(\C)CC/C=C(\C)CC/C=C(\C)CC/C=C(\C)CC/C=C(\C)CC/C=C(\C)CC/C=C(\C)CC/C=C(\C)CCC=C(C)C)=C(C)C1=O` [Coenzyme Q10], the Solubility in water [1] is given as “practically insoluble in water”, the “Solubility of coenzyme Q10 (% w/w)” value ([2]; in Acetylated monoglycerides, room temperature 24 hours) is given as 7.5 % w/w and the “Solubility of coenzyme Q10 (% w/w)” value ([2]; in Capmul MCM C8, room temperature 24 hours) is given as 1.50 % w/w. The “Solubility of coenzyme Q10 (% w/w)” value ([2]; in Glyceryl mono-oleate, room temperature 24 hours) was 2.41 % w/w, the “Solubility of coenzyme Q10 (% w/w)” value ([2]; in Isopropyl myristate, room temperature 24 hours) was 11.2 % w/w and the “Solubility of coenzyme Q10 (% w/w)” value ([2]; in Labrafac Hydro WL1219, room temperature 24 hours) was 3.17 % w/w. For the same compound, the “Solubility of coenzyme Q10 (% w/w)” value ([2]; in Labrafil M 1944, room temperature 24 hours) was 5.91 % w/w, the “Solubility of coenzyme Q10 (% w/w)” value ([2]; in Labrafil M 2125, room temperature 24 hours) was 5.35 % w/w and the “Solubility of coenzyme Q10 (% w/w)” value ([2]; in Lauroglyco 1 FCC, room temperature 24 hours) was 3.05 % w/w. For the same compound, the “Solubility of coenzyme Q10 (% w/w)” value ([2]; in Lauroglyco 190, room temperature 24 hours) was 3.06 % w/w, the “Solubility of coenzyme Q10 (% w/w)” value ([2]; in Lemon oil, equilibrated at room temperature 24 hours, 0.45 μm filtered) was 24.3 % w/w and the “Solubility of coenzyme Q10 (% w/w)” value ([2]; in Medium chain triglycerides, room temperature 24 hours) was 3.74 % w/w. The “Solubility of coenzyme Q10 (% w/w)” value ([2]; in Oleic acid, room temperature 24 hours) was 3.80 % w/w, the “Solubility of coenzyme Q10 (% w/w)” value ([2]; in PEG 35 Castor oil, room temperature 24 hours) was 2.34 % w/w and the “Solubility of coenzyme Q10 (% w/w)” value ([2]; in Polysorbate 80, room temperature 24 hours) was 0.370 % w/w. The “Solubility of coenzyme Q10 (% w/w)” value ([2]; in Polysorbate 85, room temperature 24 hours) was 1.57 % w/w, the “Solubility of coenzyme Q10 (% w/w)” value ([2]; in Span 80, room temperature 24 hours) was 3.24 % w/w and the “Solubility of coenzyme Q10 (% w/w)” value ([2]; in Transcutol P, room temperature 24 hours) was 0.260 % w/w.
